Results from patent US5008126A, “Long chain diol diesters as low calorie fat mimetics” (Nabisco Brands, Inc., priority 1989, dated 1991).

How the values were obtained:
[1] = in vitro digestibility (lipase hydrolysis, TLC densitometry); assay type: in vitro ADME, porcine; conditions: pig, pancreatic lipase; in three hours; 37° C., pH 7.1 phosphate buffer with cholic acid; read-out: hydrolyzed (extent of hydrolysis by lipase)
Procedure: (§1) This example outlines the procedure for estimating the in vitro digestibility of the long chain diol diesters of this invention.
(§2) 1. Buffer: A pH 7.1 phosphate buffer is prepared by dissolving 6.8 g. KH2 PO4 in 1 L. of millipore filtered water (to yield 0.05M phosphate). Fifty mg. Ca(NO3)2 and 5.0 g. cholic acid (Na salt, an ox bile isolate from Sigma) are added to give 300 microM Ca^++ and 0.5 % cholic acid in 0.05M phosphate. The pH is adjusted to approximately 7.1 with solid NaOH. Several drops of Baker "Resi-analyzed" toluene are added to prevent bacterial growth during storage at 3°-5° C.
(§3) 2. Lipase: About 15 mg./mL commercial porcine pancreatic lipase from U.S. Biochemical Corporation is dissolved in buffer.
(§4) 3. Substrates and Standards: A 1.0 mL volumetric flask is charged with an amount of lipid substrate calculated to give a concentration of 200 nanomoles per microliter in Baker "Resi-analyzed" toluene. (The proper concentration may be approximated by doubling the molecular weight of the lipid in question, dividing by 10, and diluting to the mark; this yields about 200 nanomoles per microliter.) This preparation affords the substrate to be used in the hydrolysis reactions. […]

[2] = caloric availability by in vivo animal feeding study (body weight gain); design: species or system male Sprague-Dawley rats; conditions: rats, diet of 50% fort and 21% test compound, 14 days; from weight gain versus corn oil base line
From the text: This example illustrates how the novel fat mimetics of this invention are screened for caloric availability by a carefully controlled in vivo animal feeding study.
An experimental relationship between total calories ingested and animal body weight gain is established by monitoring the body weight gain associated with consumption of a nutritionally balanced diet containing varying concentrations of a reference substance such as corn oil which has a known caloric availability. Correlations between total calories ingested and body weight gain are excellent (r=0.99).
Caloric availability of an unknown substance is evaluated by substituting a specific weight of the unknown substance for the reference substance and observing the body weight gain. The gain in body weight is equated to a total number of calories using the correlation previously established for the reference data. The estimated number of calories ingested are divided by the weight of unknown substance to give the apparent calories per gram for the unknown substance. Generally speaking, in these bioavailability studies, the degree of perianal pelt soiling correlates with reduced bioavailability.
The test animals are six-week-old male Sprague-Dawley rats obtained from the Portage, Mich. facility of the Charles River Laboratories, Inc. After acclimation for 15 days, the test duration is 14 days. […]

[3] = test system: porcine pancreatic lipase; test: in vitro digestibility (lipase hydrolysis, TLC densitometry); assay type: in vitro ADME; conditions: in 10 minutes; 37° C., pH 7.1 phosphate buffer with cholic acid
Procedure: as §1, §2, §3, §4

| Compound | metabolised at 3 h [1] | caloric availability (kcal/gram upon being metabolized) [2] | hydrolysis by lipase (in words) [3] |
| --- | --- | --- | --- |
| CCCCCCCC/C=C\CCCCCCCC(=O)OCC(CCCCCCCCCCCC)OC(=O)CCCCCCC/C=C\CCCCCCCC (stereo not drawn) [Example 1, 1,2 Tetradecane dioleate] | ~20% | about 6.0 kcal/gram |  |
| CCCCCCCC/C=C\CCCCCCCC(=O)OCC(COC(=O)CCCCCCC/C=C\CCCCCCCC)OC(=O)CCCCCCC/C=C\CCCCCCCC [triolein, reference compound] |  |  | substantially hydrolyzed |
